We go through 14 molecules from ChEMBL document CHEMBL3399949, “Fingerprint-based consensus virtual screening towards structurally new 5-HT(6)R ligands” (Bioorg Med Chem Lett, 2015).

The data set is described as follows: Dissociation constant, pKa of the compound. It counts as physicochemical.
In general, pKa refers to the negative logarithm of the acid dissociation constant. Lower therefore signals a stronger acid or weaker base. In turn, `COCCn1c(C)c(C)c(S(=O)(=O)c2ccc(Cl)cc2)c1N` had a pKa of -0.59.

`Brc1ccc2c(c1)c1c3n2CCN(Cc2ccccc2)C3CCC1` (centres undefined) yielded a pKa of 6.95.

The molecule `COc1cccc(-n2cc(C(=O)N(C)c3cccc(Cl)c3)c3ccccc3c2=O)c1` had a pKa of -1.37.

As for `O=S(=O)(Nc1ccccc1-c1nccc2ccccc12)c1ccc(Cl)cc1`, the pKa was 5.3.

As for `NC(=O)C1CCN(c2c(S(=O)(=O)c3ccccc3)cnc3ccc(Cl)cc23)CC1`, the pKa was found to be 3.05.

In the case of `Cc1ccc(Cl)cc1N(C)C(=O)c1cn(-c2ccc(F)cc2F)c(=O)c2ccccc12`, the pKa was -1.07.

`O=S(=O)(Nc1ccn(Cc2cccc3ccccc23)n1)c1ccc(Br)s1`: the pKa was found to be 1.93.

In turn, `Cc1ccc(Nc2c(S(=O)(=O)c3ccccc3)cnc3ccc(Cl)cc23)cc1` displayed a pKa of 2.34.

For the molecule `Cc1ccc(S(=O)(=O)c2cnc3ccc(F)cc3c2SCc2ccc(Cl)cc2)cc1`, the pKa is -0.25.

In turn, `Cc1ccc(S(=O)(=O)N/N=C2\CCCc3c2[nH]c2ccc(Cl)cc32)cc1` came in with a pKa of -0.33.

In turn, `O=S(=O)(Nc1cc2c(c3ccccc13)OC1(N3CCOCC3)CCCCC21)c1ccccc1` (centres undefined) displayed a pKa of 5.56.

In the case of `O=S(=O)(Nc1cc(Sc2cccc3cccnc23)c(O)c2ccccc12)c1ccccc1`, the pKa worked out at 3.48.

`O=S(=O)(Nc1cc(Sc2cccc3cccnc23)c(O)c2ccccc12)c1ccc(F)cc1`: the pKa worked out at 3.48.

`Nc1c(S(=O)(=O)c2ccccc2)sc2nc(-c3ccccc3)cc(-c3ccccc3)c12` had a pKa of -0.69.
